According to article PMC4596572, “Ligand Discovery for the Alanine-Serine-Cysteine Transporter (ASCT2, SLC1A5) from Homology Modeling and Virtual Screening” (PLoS Computational Biology, 2015):

Key:
Assay type in all cases: cell-based
[1] = tested on: C8161 human melanoma cells; experiment: MTT cell viability assay; settings: 5 mM
Procedure: (§1) Glutamine is a conditionally essential amino acid required for cancer cell growth, being used as fuel source for the TCA cycle, and a carbon and nitrogen source for macromolecule production. We therefore examined cell viability in the presence of chloroalanine (5 mM), AOC (5 mM) and γ-FBP (5 mM) using an MTT assay in C8161 cells (Methods).
(§2) Human melanoma cell line C8161 culture was performed as previously described. Media used was DMEM/F12 medium (Life Technologies) containing 5% (v/v) fetal bovine serum (FBS), penicillin-streptomycin solution (Sigma-Aldrich). Cells were maintained at 37°C in a fully humidified atmosphere containing 5% CO2. Inhibitors (chloroalanine, AOC and γ-FBP) were resuspended in H2O, with control cells treated with the appropriate concentrations of vehicle alone.
MTT (3–(4,5–dimethylthiazol–2–yl)–2,5–diphenyl […] bromide; Millipore) cell viability assay was performed as previously described. Briefly, C8161 cells (1 × 10^4/well) were seeded in a flat-bottomed 96–well plate, incubated overnight in media, prior to culture with or without each inhibitor. MTT solution (10 μL) was added to each well for 4 h, prior to addition of 100 μL of isopropanol/HCl solution. Solution was mixed thoroughly and plates immediately read at 570 nm/630 nm in a PolarStar plate reader (BMG). Results were plotted as percentages of the absorbance observed in control wells.

[2] = tested on: C8161 human melanoma cells; experiment: Annexin V/propidium iodide apoptosis assay by flow cytometry; settings: 5 mM, 48 hours
Procedure: as §1
Cells (5 × 10^5 per well) were seeded in 24 well plates, allowed to adhere overnight, and then incubated in the presence of 5 mM chloroalanine, AOC or γ-FBP for 48 hours. Cells were detached using Tryple and resuspended in 300 μL of binding buffer (HEPES-buffered PBS supplemented with 2.5 mM calcium chloride) with Annexin V-APC (BD) and incubated for 15 min in the dark at room temperature. Propidium iodide solution (5 μg/mL) was added, and the cells were analyzed using the BD LSRFortessa and FlowJo software.

[3] = molecular target: T1, ASCT2 mediated glutamine uptake in C8161 melanoma cells (Homo sapiens, UniProt Q15758); experiment: [3H]-L-glutamine uptake assay in C8161 cells; settings: 15 min, 37°C, n = 3
T1 construct: endogenous in cells; host or cells: C8161 human melanoma cell line
T1 sequence (Q15758 1-541): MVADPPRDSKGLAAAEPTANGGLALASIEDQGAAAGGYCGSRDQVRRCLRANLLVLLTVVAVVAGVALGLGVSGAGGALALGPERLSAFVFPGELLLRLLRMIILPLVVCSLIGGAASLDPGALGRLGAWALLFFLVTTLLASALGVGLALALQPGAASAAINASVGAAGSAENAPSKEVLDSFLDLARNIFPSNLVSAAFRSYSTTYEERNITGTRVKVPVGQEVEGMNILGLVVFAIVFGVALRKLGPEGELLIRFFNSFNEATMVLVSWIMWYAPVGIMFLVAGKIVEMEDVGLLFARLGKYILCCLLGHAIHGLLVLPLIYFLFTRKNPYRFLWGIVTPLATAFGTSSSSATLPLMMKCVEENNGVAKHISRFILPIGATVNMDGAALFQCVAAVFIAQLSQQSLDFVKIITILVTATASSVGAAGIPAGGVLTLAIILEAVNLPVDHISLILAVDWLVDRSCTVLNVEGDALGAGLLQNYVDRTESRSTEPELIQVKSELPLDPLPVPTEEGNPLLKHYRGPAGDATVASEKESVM
Procedure: We have previously shown that ASCT2 mediates glutamine uptake in C8161 human melanoma cells, and that blocking ASCT2 activity inhibits cell growth and viability (Methods). […] In the presence these compounds, [^3H]-L-glutamine uptake was decreased in a dose-dependent manner in C8161 cells, in agreement with their elicitation of current as activators and potential substrates (Fig 8A–8C).
as §2
C8161 cells (1 × 10^5/well) were incubated with [^3H]-L-glutamine (400 nM; PerkinElmer) in MEM media (Life Technologies) for 15 min at 37°C in the presence or absence of each inhibitor. Cells were collected and transferred to filter paper using a 96-well plate harvester (Wallac PerkinElmer), dried, exposed to scintillation fluid and counts measured using a liquid scintillation counter (PerkinElmer).

IC50 [3] [mM]	Structure (SMILES)	Cell viability (MTT) [1]	Apoptosis (early Annexin V+PI-, late Annexin V+PI+) [2]
10 to 15	O=C(O)C1CC(Cc2ccccc2F)CN1 (stereo not drawn) [γ-FBP]	significantly inhibited cell viability	neither AOC nor γ-FBP led to a significant increase
10 to 15	NC1(C(=O)O)COC1	significantly inhibited cell viability	neither AOC nor γ-FBP led to a significant increase

Structure (SMILES)	IC50 [3] [mM]	Cell viability (MTT) [1]	Apoptosis (early Annexin V+PI-, late Annexin V+PI+) [2]
NC(CCl)C(=O)O (stereo not drawn) [Chloroalanine]	9.2	significantly inhibited cell viability	significantly increased apoptosis
